In patent US20250288647A1, “ANGIOGENESIS INHIBITING PEPTIDE AND USE THEREOF” (SEOUL NATIONAL UNIVERSITY HOSPITAL, priority 2021, published 2025):

Columns and labels:
PDGF receptor [1] = experiment: Surface plasmon resonance (SPR) binding test, Biacore T200; conditions: PDGF receptor 400 ng/ml, CM5 chip
Procedure: (§1) It was confirmed that the prepared peptides have binding affinity to VEGF receptors and PDGF receptors using surface plasmon resonance (SPR). More specifically, SPR was performed using a Biacore T200 (GE Healthcare) device and a CM5 chip (GE Healthcare, Cat #. BR-1005-30), and the obtained results were analyzed using BIAevaluation software version 3.0 (GE Healthcare). For a binding test, a concentration of 200 ng/mL was used for the VEGF receptor and a concentration of 400 ng/ml was used for the PDGF receptor.

VEGF receptor [2] = experiment: as above; conditions: VEGF receptor 200 ng/mL, CM5 chip
Procedure: as §1

PDGF receptor [3] = experiment: Real-time degree of binding using BLtz instrument (ForteBio); conditions: FIGS. 2A to 2I
Text: (§2) FIG. 2 is a view showing the results of confirming the degree of binding of the peptides using BLtz system according to an exemplary embodiment of the present invention to a VEGF receptor and a PDGF receptor. FIG. 2A is a view showing the results of Peptides 1 to 3, FIG. 2B is a view showing the results of Peptide 8, FIG. 2C is a view showing the results of Peptide 9, FIG. 2D is a view showing the results of Peptide 10, FIG. 2E is a view showing the results of Peptide 11, FIG. 2F is a view showing the results of Peptide 12, FIG. 2G is a view showing the results of Peptide 13, FIG. 2H is a view showing the results of Peptide 14, and FIG. 2I is a view showing the results of Peptide 15.
(§3) In addition, the degree of binding between the peptides and the receptors was confirmed in real time using a BLtz instrument (ForteBio).

VEGF receptor [4] = experiment: as above; conditions: FIGS. 2A to 2I
Text: as §2, §3

[5] = system: MDA-MB-231 breast cancer cell line; experiment: Anticancer effect: MDA-MB-231 cells mixed with peptide and Matrigel injected subcutaneously, size of cancer; assay type: in vivo, NSG mice; conditions: 14 days after subcutaneous injection with 2×10^6 MDA-MB-231 cells and Matrigel, compared to PBS control, FIG. 3
Procedure: (§4) As a control, an equal amount of phosphate buffered saline (PBS) was mixed with Matrigel and injected. After the mice were euthanized 14 days later, cancer tissue was obtained and the size of cancer was measured. All animal handling and procedures were performed in accordance with research protocols approved by the Animal Care and Use Committee of Seoul National University Hospital. Thereafter, in all experiments, statistical significance between two groups was confirmed by a Student's t-test, and when P<0.05, it was determined to be statistically significant. Then, the obtained cancer tissue was fixed using a 4% paraformaldehyde solution, embedded using paraffin, and then cut to a thickness of […] to prepare a tissue section. The prepared tissue section was then stained using a CD31 antibody (Abcam) that specifically binds to CD31, a blood vessel-specific gene, and DAPI.

CD31 = CD31 staining of cancer tissue sections (angiogenesis in cancer tissue); assay type: in vivo, NSG mice; conditions: tissue sections of cancer tissue obtained at 14 days, FIG. 4
Procedure: as §4

[6] = system: mice with oxygen-induced retinopathy; experiment: Oxygen-induced retinopathy mice, intravitreal injection, isolectin staining, area of neovascular tufts; assay type: in vivo; conditions: 1 μL intravitreal, right eye, 5 days after injection, FIGS. 5 and 6
Procedure: Two days later, for the prepared mice with retinopathy, 1 μL of phosphate buffer solution, Peptide 1, Peptide 4, and KAI1 protein (CD82), which is known to bind to VEGF and PDGF, were intravitreally injected to the right eye of each of the mice, respectively. Mice were euthanized 5 days after injection and enucleated eyes were prepared. The prepared enucleated eye was immunostained using 5 μg/mL Alexa Fluor 594 isolectin GS-IB4 conjugate (Invitrogen), and then observed using a fluorescence microscope. Thereafter, the area of neovascular tufts was quantified as a percentage of the total retina using Image J (NIH).

Molecule | binding to the PDGF receptor (SPR) (PDGF receptor [1]) | binding to the VEGF receptor (SPR) (VEGF receptor [2]) | degree of binding to the PDGF receptor (BLtz) (PDGF receptor [3]) | degree of binding to the VEGF receptor (BLtz) (VEGF receptor [4]) | size of cancer [5] | CD31 antibody staining (fluorescence intensity) in cancer tissue (CD31) | angiogenesis inhibitory effect in retinopathy (area of neovascular tufts as percentage of total retina) [6]
NHPEDWPVYQEGC [Peptide 15] | bound strongly | bound strongly | stably bound | stably bound | – | – | –
NRPEVTAPASCEVKGAAANS [Peptide 4] | – | – | – | – | size of cancer was remarkably increased | remarkably high | did not show an angiogenesis inhibitory effect
NRPEVTAPASCEVKGEEDNS [Peptide 2] | bound weakly | bound weakly | weak binding affinity | weak binding affinity | – | – | –
NRPEVTYPCSCEVKGAAANS [Peptide 3] | – | – | weak binding affinity | weak binding affinity | – | – | –
NRPEVTYPCSCEVKGEEDNS [Peptide 1] | bound strongly | bound strongly | highest binding affinity | highest binding affinity | size of cancer was inhibited compared to the control | almost no portion stained with a CD31 antibody | angiogenesis inhibitory effect similar to that of the comparative group administered the KAI1 protein
SFYNWTDNAELMN [Peptide 9] | bound strongly | bound strongly | stably bound | stably bound | – | – | –
KAI1 protein: KAI1 protein (CD82), which is known to bind to VEGF and PDGF; comparative group (protein, UniProt P27701 1-267, looked up) CD82 antigen: MGSACIKVTKYFLFLFNLIFFILGAVILGFGVWILADKSSFISVLQTSSSSLRMGAYVFIGVGAVTMLMGFLGCIGAVNEVRCLLGLYFAFLLLILIAQVTAGALFYFNMGKLKQEMGGIVTELIRDYNSSREDSLQDAWDYVQAQVKCCGWVSFYNWTDNAELMNRPEVTYPCSCEVKGEEDNSLSVRKGFCEAPGNRTQSGNHPEDWPVYQEGCMEKVQAWLQENLGIILGVGVGVAIIELLGMVLSICLCRHVHSEDYSKVPKY | – | – | – | – | – | – | angiogenesis inhibitory effect
